In patent publication US20240018483A1, “A DEVICE AND METHOD FOR VASCULARISING A CELL AGGREGATE” (AGENCY FOR SCIENCE, TECHNOLOGY AND RESEARCH, priority 2020, published 2024):

Tested on: Hep3b monoculture and triculture spheroids
Experiment: Sorafenib treatment of tumour spheroids in devices with and without vasculature (GFP signal of live cells)
Assay type: cell-based
Conditions: 10 μM Sorafenib for 7 days from day 5, vascularised vs non-vascularised, FIG. 9B
Method: Next, the effect of Sorafenib treatment on the tumour spheroids and the vasculature was investigated. In this example, Hep3b monoculture and triculture spheroids were seeded in the devices with and without vasculature. At day 5, 10 μM of Sorafenib was used to treat the tumours for 7 days. GFP signal (representing the live cells) was quantified along the time.
In FIG. 9A, representative images from all the conditions are shown at Day 0 (starting of the drug treatment) and Day 5 post-treatment. FIG. 9B is a graph showing the GFP signal over time represented from 3 independent replicates.

## CNC(=O)c1cc(Oc2ccc(NC(=O)Nc3ccc(Cl)c(C(F)(F)F)c3)cc2)ccn1 [Sorafenib]
  viability of spheroids (GFP signal representing the live cells): viability of the vascularised spheroids is lower compared to the non-vascularised spheroids
